# In a melting point compilation (Tetko et al.; mined from patent text by program, amines drawn as free bases though some values may be those of a salt):
row,SMILES,melting point
1,Cc1ccc(C(=S)Nc2cc(F)ccc2F)cc1,118 to 121 °C
2,O=C(NC1(C(=O)O)CCc2cc(O)ccc2C1)C(F)(F)F (stereo not drawn),70 to 95 °C
3,Cc1c(C(F)(F)F)noc1OCC(=O)O,73.5 to 76 °C
4,CNc1cccc([N+](=O)[O-])c1N,93 °C
5,CCOC(=O)c1c(C)cc(OC)cc1C(=O)O,142 to 143 °C
6,Cc1cccc2c1N(C)CS2=O (stereo not drawn),122 to 124 °C
7,COCc1cc([N+](=O)[O-])c(Cl)cc1C(=O)Cl,63 to 65 °C
8,COC(=O)C(CCS(N)(=O)=O)c1ccc([N+](=O)[O-])cc1F (stereo not drawn),99 to 101 °C
9,CS(=O)(=O)OCCN(CCCl)c1ccc([N+](=O)[O-])c(C(=O)NCCCO)c1[N+](=O)[O-],104 to 109 °C
10,CC(=O)NC1=NN(c2ccc(C(=O)C(F)(F)F)cc2)CC1,243 to 244 °C
11,CC(N)=CC(=O)OCC1CC1,55 to 58 °C
12,CCOC(=O)C(Cc1ccc(-c2cccc(N(C)C(=O)Nc3ccc(N(C)C)cc3)c2)cc1)Nc1ccccc1C(=O)c1ccccc1 (stereo not drawn),75 °C
13,C=C1CC2C(CCC3(C)C2C=CC3(C)O)C2(C)CCC(=O)C=C12 (stereo not drawn),162 °C
14,CC(C(=O)NCC(COC(=O)C(C)(C)C)Cc1ccc(C(C)(C)C)cc1)c1ccc(NS(C)(=O)=O)c(F)c1 (stereo not drawn),44 to 46 °C
15,CCCCCCc1cc(C(=O)O)c(N)s1,80 to 81 °C
16,CCOC(=O)c1c(CN=[N+]=[N-])cccc1S(=O)(=O)NC(=O)Nc1nc(OC)cc(OC)n1,158 to 160 °C
17,CN(C)C12CN3CN(CN(C3)C1)C2,110 to 111 °C
18,N#Cc1ccc(-c2ccc(Cl)cc2)nc1Cl,179 to 181 °C
19,CCOC(=O)c1noc(-c2ccc(SC)cc2Cl)c1C(=O)C1CC1,50 °C
20,CCC(Oc1c(C)cccc1C)C(=O)OC1CC(O)C=C2C=CC(C)C(CCC3CC(O)CC(=O)O3)C21 (mixture of isomers),125 to 127 °C

row,SMILES,melting point
1,COc1ccc2c(c1O)N=CC1CCCN1C2=O (stereo not drawn),150 to 153 °C
2,Cc1ccc(S(=O)(=O)N(Cc2ccc(C#N)cc2F)C2CCCC2)cc1,178 to 179 °C
3,COCc1c(S(C)(=O)=O)ccc(C(=O)O)c1Cl,137 to 141 °C
4,CCC(C)NC(=O)C1=C(C(=O)Nc2cc(OC3CCCC3)c(Cl)cc2F)CCCC1 (stereo not drawn),174 to 175 °C
5,CCCNc1nc(OC)ccc1[N+](=O)[O-],69 to 70 °C
6,CC1(O)CCC2(C)C(CCC3C2CCC2(C)C(c4cn5ccccc5n4)CCC32)C1 (stereo not drawn),225 to 226 °C
7,CCOC(=O)c1cnc(SC)nc1NCc1ccc(OC)c(Cl)c1,82 to 83 °C
8,CC(C)(C(=O)C=Cc1ccc(Cl)cc1Cl)C1OCCO1,92 to 93 °C
9,NS(=O)(=O)Oc1ccc2c(c1)S(=O)(=O)N=C2C1CCCCC1,170 °C
10,N#Cc1c(C(F)(F)F)nn(-c2c(Cl)cc(C(F)(F)F)cc2Cl)c1Br,85 to 87 °C
11,Nc1cc(C(=O)NCC(=O)O)ccc1F,150 to 152 °C
12,CCCc1c(C(=O)C(C)C)c2ccc(NC(=O)NC)cc2n1Cc1ccccc1Cl,106 to 108 °C
13,CC(=O)c1ccc2c(c1)NC(NC(C)C)=NS2(=O)=O,305 to 308 °C
14,CCc1ccc2c(O)cnn2c1,78 to 79 °C
15,CC(C)n1cccc1C(N)=S,97.5 to 100 °C
16,Oc1nsc(OC2CCCCC2)n1,105 °C
17,O=C/C=C/c1cc2ccccc2s1,88 °C
18,C=Cc1ccc(OC)c(OC)c1[N+](=O)[O-],140 to 141 °C
19,CCC(NC(=NC#N)Nc1cccnc1)c1ccccc1 (stereo not drawn),155 to 156 °C

# Other lines, results leading:
row,melting point,SMILES
1,136 °C,CCOC(=O)c1cccc(NC(=O)NCC(=O)N2[C@@H](C(=O)OCC)CC[C@H]2c2ccccc2)c1 (racemic)
2,> 230 °C,O=c1[nH]c2c(n(O)c1=O)C1=C(CCC(n3ccc(CN4CCN(c5ccc([N+](=O)[O-])cc5)CC4)c3)=C1)CC2
3,176 to 178 °C,COc1ccc(C2=NN(c3ccc(O)cc3)C(=O)C(C)(C)C2)cc1OC
4,152 to 154 °C,CCNC(=O)Nc1cccc(-c2cccc(OC)c2)c1
5,282 to 284 °C,N#Cc1cccc(C(=O)NCc2cccc3c2CN(C2CCC(=O)NC2=O)C3=O)c1 (stereo not drawn)
6,110 to 111 °C,CC[Si](CC)(CC)OC1CCCc2cnc3ccc(OCc4ccccc4[N+](=O)[O-])cc3c21 (stereo not drawn)
7,228 to 230 °C,O=c1[nH]c2cc(OCC(O)CN3CCOCC3)ccc2c2oc3ccccc3c12 (stereo not drawn)
8,> 300 °C,N#Cc1cccc2c1NC(=O)C2c1ncnc2c1cnn2C1CCCCC1 (stereo not drawn)
9,192 °C,CCOC(=O)COc1ccc(/C=C/c2nc3c(c(=O)n(CC)c(=O)n3CC)n2C)cc1
10,94 to 96 °C,Clc1ccc(CN2CC=C(/C=C/c3cccc(Cl)c3)CC2)cc1
11,224 °C,O=C(NC(=O)c1c(F)cccc1F)Nc1ccc(Oc2cccc3ccccc23)nc1
12,145 °C,[N-]=[N+]=N[C@H]1C[C@H](C(=O)Nc2ccc(N3CCOCC3=O)cc2)N(C(=O)Nc2ccc(Cl)cc2)C1
13,233 to 235 °C,Nc1ccc(Oc2c(NCc3ccco3)cc(C(=O)O)cc2S(N)(=O)=O)cc1
14,168 °C,O=C(O)CNC(=O)Nc1cccc(C(=O)OCc2ccccc2)c1
15,191 to 192 °C,Cc1cc(-n2ccc(OCc3ccccc3)cc2=O)oc1C(=O)NCc1ccccc1
16,142 to 144 °C,CCOc1noc(C(=O)OCc2ccccc2)c1CC(NC(=O)OC(C)(C)C)C(=O)OCc1ccccc1 (racemic)
17,171 to 172 °C,COc1ccc(C(=O)Oc2ccc(C(=O)OCc3ccccc3)c(O)c2)cc1C12CC3CC(CC(C3)C1)C2
18,265 to 267 °C,Cn1ccnc1Sc1ccc(Nc2c(C#N)cnc3cc(N4CCC(N5CCCC5)CC4)c(N)cc23)cc1Cl
19,209 to 210 °C,Cc1ccc2c(c1)sc1ncc(C(O)CCc3ccccc3)n12 (stereo not drawn)
20,158 to 161 °C,O=C1NC(=O)c2c1c(-c1ccccc1Cl)cc1c2c(Br)cn1CCCN1CCCC1

row,melting point,SMILES
1,86 to 88 °C,CC(C)(C)OC(=O)NCC(CCn1ccc(=O)[nH]c1=O)COC(c1ccccc1)(c1ccccc1)c1ccccc1 (stereo not drawn)
2,94 to 95 °C,O=C(CCl)N1CC(c2ccc(Cl)cc2)Sc2ccccc21 (stereo not drawn)
3,135 to 137 °C,O=C1Nc2ccc(F)cc2C1CCCCN1CCN(c2ccc(F)cc2)CC1 (stereo not drawn)
4,286 to 288 °C,COc1cc(C(=O)O)ccc1Cn1cc(/C=C/C(=O)N2CCCC2)c2ccc(/C=C/C(=O)N3CCCC3)cc21
5,121 °C,C[C@@H](c1ccc(-c2c[nH]nn2)cc1)[C@](O)(Cn1cncn1)c1ccc(F)cc1F
6,228 to 234 °C,COc1ccc(-c2cnc3cc4cnn(C[C@@H](O)CO)c4cc3n2)cc1F
7,164 to 166 °C,CCCc1ccccc1OCC(O)COc1ccc2oc(C(=O)O)cc(=O)c2c1 (stereo not drawn)
8,247 to 248 °C,CCc1cnc2c(NC(=O)c3c(Cl)cccc3Cl)cccc2c1C(N)=O
9,216 to 218 °C,CCOc1ccc(C(=O)N2CCc3cc(S(=O)(=O)N4CC(c5ccccc5)NC4=O)ccc32)cc1 (stereo not drawn)
10,166 °C,CC1(C)CCc2cccc3c(-c4ccc(F)cc4)c(C=CC4CC(O)CC(=O)O4)n1c23 (stereo not drawn)
11,192 to 194 °C,COc1cc2ncc(C#N)c(Nc3ccc(F)c(Cl)c3)c2cc1-n1cccc1
12,153 to 155 °C,Cc1cccc(C)c1NCCCC(=O)N(C(=O)c1ccc(Cl)cc1)[C@@H](Cc1ccccc1)C(=O)O
13,83 to 103 °C,COC(=O)Cc1ccc(OCC(C)NCC(O)c2cccc(Cl)c2)c(Cl)c1 (stereo not drawn)
14,200 to 202 °C,CCC(=O)NC[C@H]1CN(c2ccc(N3CCC(=CC#N)CC3)c(F)c2)C(=O)O1
15,158 to 159 °C,Cc1c(NC(=O)CC(C)(C)C)cc2c(c1C)OC(C)(C)C2CCc1ccccc1 (stereo not drawn)
16,154 °C,O=CN(O)[C@@H](CN1C(=O)CNC1=O)CS(=O)(=O)c1ccc(Oc2ccc(OC(F)(F)F)cc2)cc1
17,266 to 267 °C,Nc1c(C(=O)c2ccncc2)[nH]c2cc(Cl)ccc12
18,195 to 197 °C,COc1nc(CC(=O)O)ccc1NC(=O)Nc1ccccc1Br
19,100 to 101 °C,CCCCC[C@H]1CC[C@H](CCCOc2ccc(O)cc2)CC1
20,177 to 178 °C,NC(=NOC(=O)c1ccccc1)c1nc(Cl)c(Cl)[nH]1

row,melting point,SMILES
1,280 °C,COc1ccc2[nH]cc(C3=C(c4c[nH]c5ccccc45)C(=O)NC3=O)c2c1
2,196 to 198 °C,CCCn1nc2c(N)nc3ccccc3c2c1CCCc1cc(-c2cccnc2)on1
3,72 to 74 °C,CCc1oc2ccccc2c1C(=O)c1ccc(OCC(=O)OC)cc1
4,97 to 98 °C,COc1ccc(-c2nc(-c3ccccc3)no2)cc1
5,240 to 245 °C,Cc1ccc2c(-c3nnn[nH]3)cn(Cc3ccc4oc(-c5nc(C(C)(C)C)cs5)cc4c3)c2c1
6,214 to 216 °C,CN1CCC=C(c2cc3ccccc3c(=O)[nH]2)C1
7,188 to 190 °C,CCOc1nc(NCc2ccco2)nc(Nc2ccc3[nH]c(C(F)(F)F)nc3c2)n1
8,159 to 161 °C,COC1(c2cc(F)cc(Oc3nc(-c4ccccc4)c(-c4ccc(S(N)(=O)=O)cc4)o3)c2)CCOCC1
9,53 to 54 °C,CON=C(C#N)c1ccccc1COc1ccccc1C
10,189 to 190 °C,COc1cc(Nc2c(C#N)cnc3cc(-c4ccc(CN5CCN(CCO)CC5)cc4)sc23)c(Cl)cc1Cl
11,135 to 136 °C,CCCn1nc2c(N)nc3ccccc3c2c1CCCCO
12,175 to 176 °C,CCOC(=O)c1cn2c(cc(OC)c3ccccc32)n1
13,176 to 177 °C,O=CN(O)C(CS(=O)(=O)c1ccc(Oc2ccc(OC(F)(F)F)cc2)cc1)C1CCC2(CC1)OCCO2 (stereo not drawn)
14,230 to 232 °C,FC(F)(F)c1ccc2c(Nc3ccccc3)ncnc2c1
15,178 °C,CCOC(=O)C1=C(C)Nc2nc(N3CCOCC3)nc(N3CCOCC3)c2C1c1ccccc1 (stereo not drawn)
16,154 °C,O=C1C[C@H](C(=O)Nc2ccc(N3CCOCC3=O)cc2)N(C(=O)Nc2ccc(Cl)cc2)C1
17,90 to 93 °C,CN1CCN(c2ccc(S(=O)(=O)c3ccccc3)c(N)c2)CC1
18,198 to 202 °C,CN(C)C=NC(=O)c1cnn2c(-c3ccccc3)ccnc12
19,180 °C,COC(=O)Cc1cccc(-c2nc(=O)c3ccccc3s2)n1
